# Laboratory results as given in paper PMC12041489 (Scientific Reports, 2025).
# “Also recorded” adds a separate entry of the source. Read-outs that look alike come from different tables or passages of the source.
# Columns and labels:
# [1] = target: T1, mushroom tyrosinase (Agaricus bisporus, UniProt C7FF04); details: read-out: Tyrosinase inhibitory activity IC50
# [2] = target: T1, mushroom tyrosinase; experiment: biochemical
# [3] = ABTS radical cation scavenging activity assay; details: read-out: ABTS radical scavenging IC50
# [4] = target: T1, mushroom tyrosinase; experiment: Tyrosinase kinetic analysis; format: biochemical
# [5] = DPPH free radical scavenging activity assay; details: read-out: DPPH radical scavenging IC50
# [6] = tested on: fresh-cut apples; experiment: Anti-browning experiment on fresh-cut apples; design: species or system Fuji apples; details: stored at 5 °C for 4 days
# [7] = tested on: human umbilical vein endothelial cells (HUVEC); experiment: MTT assay for cell viability; format: cell-based; details: 24-h treatment, up to 32 µM
# [8] = target: tyrosinase (Agaricus bisporus, UniProt C7FF04); experiment: Fluorescence quenching of tyrosinase; format: binding, mushroom; details: for Kq / Ksv: λex 280 nm
# Chain of tyrosinase (C7FF04 1-392 limits assumed): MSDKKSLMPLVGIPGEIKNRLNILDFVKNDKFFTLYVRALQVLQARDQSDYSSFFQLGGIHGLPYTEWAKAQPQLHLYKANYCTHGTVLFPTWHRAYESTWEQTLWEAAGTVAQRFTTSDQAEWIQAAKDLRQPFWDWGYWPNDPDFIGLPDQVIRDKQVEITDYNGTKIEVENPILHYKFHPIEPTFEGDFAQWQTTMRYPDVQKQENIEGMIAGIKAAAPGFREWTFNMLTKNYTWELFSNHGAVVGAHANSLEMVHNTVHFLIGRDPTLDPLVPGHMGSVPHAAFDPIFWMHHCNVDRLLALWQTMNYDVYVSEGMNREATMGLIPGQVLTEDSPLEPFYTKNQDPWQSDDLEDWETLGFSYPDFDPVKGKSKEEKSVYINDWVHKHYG
# T1 sequence (C7FF04 1-392 limits assumed): as above
smiles,measurement,setting,value
"CC(=O)c1ccc(OCc2cn(Cc3cc(=O)c(O)co3)nn2)c(C)c1 [Compound 13e, 2-((4-((4-acetyl-2-methylphenoxy)methyl)-1H-1,2,3-triazol-1-yl)methyl)-5-hydr-oxy-4H-pyran-4-one]",IC50,[1],1740 ± 48 nM
"COc1ccc(C=O)c(OCc2cn(Cc3cc(=O)c(O)co3)nn2)c1 [Compound 13j, 2-((1-((5-hydroxy-4-oxo-4H-pyran-2-yl)methyl)-1H-1,2,3-triazol-4-yl)methox-y)-4-methoxybenzaldehyde]",IC50,[1],2817 ± 7 nM
"CC(=O)c1ccc(C)cc1OCc1cn(Cc2cc(=O)c(O)co2)nn1 [Compound 13n, 2-((4-((2-acetyl-5-methylphenoxy)methyl)-1H-1,2,3-triazol-1-yl)methyl)-5-hy-droxy-4H-pyran-4-one]",IC50,[1],6818 ± 27 nM
"CC(=O)c1cc(C)ccc1OCc1cn(Cc2cc(=O)c(O)co2)nn1 [Compound 13o, 2-((4-((2-acetyl-4-methylphenoxy)methyl)-1H-1,2,3-triazol-1-yl)methyl)-5-hy-droxy-4H-pyran-4-one]",IC50,[1],1830 ± 42 nM
"CC(=O)c1ccc(Cl)cc1OCc1cn(Cc2cc(=O)c(O)co2)nn1 [Compound 13q, 2-((4-((2-acetyl-5–CHlorophenoxy)methyl)-1H-1,2,3-triazol-1-yl)methyl)-5-hy-droxy-4H-pyran-4-one]",IC50,[1],3030 ± 59 nM
"CC(=O)c1ccc(Br)cc1OCc1cn(Cc2cc(=O)c(O)co2)nn1 [Compound 13r, 2-((4-((2-acetyl-5-bromophenoxy)methyl)-1H-1,2,3-triazol-1-yl)methyl)-5-hy-droxy-4H-pyran-4-one]",IC50,[1],3320 ± 57 nM
"CC(=O)c1ccc(F)cc1OCc1cn(Cc2cc(=O)c(O)co2)nn1 [Compound 13s, 2-((4-((2-acetyl-5-fluorophenoxy)methyl)-1H-1,2,3-triazol-1-yl)methyl)-5-hy-droxy-4H-pyran-4-one]",IC50,[1],2580 ± 49 nM
"COc1ccc(C(C)=O)c(OCc2cn(Cc3cc(=O)c(O)co3)nn2)c1 [Compound 13t, 2-((4-((2-acetyl-5-methoxyphenoxy)methyl)-1H-1,2,3-triazol-1-yl)methyl)-5-hydroxy-4H-pyran-4-one]",IC50,[2],1363 ± 3 nM
same,IC50,[3],45640 ± 250 nM
same,Ki,[4],365 nM
same,inhibition type,[4]; Lineweaver–Burk double reciprocal plots,mixed-type inhibitor
same,IC50,[5],57900 ± 280 nM
same,L* value of fresh-cut apples,[6]; 25 µM,65.91
same,L* value of fresh-cut apples,[6]; 50 µM,66.59
same,L* value of fresh-cut apples,[6]; 100 µM,67.87
same,toxicity to HUVEC (cell viability),[7],no discernible toxicity; also recorded: no evident toxicity
same,predominant quenching mechanism,"[8]; Stern-Volmer plots at 298, 303 and 310 K",dynamic quenching
same,Kq,[8]; T 298 K,1.952e+12 M⁻¹ s⁻¹
same,Ksv,[8]; T 298 K,0.01952 L/µmol
same,Kq,[8]; T 303 K,2.478e+12 M⁻¹ s⁻¹
same,Ksv,[8]; T 303 K,0.02478 L/µmol
same,Kq,[8]; T 310 K,2.823e+12 M⁻¹ s⁻¹
same,Ksv,[8]; T 310 K,0.02823 L/µmol
"O=c1cc(CO)occ1O [Kojic acid, kojic acid, reference compound]",L* value of fresh-cut apples,[6]; 50 µM,63.04
"O=C1O[C@H]([C@@H](O)CO)C(O)=C1O [Vc, ascorbic acid, reference compound]",L* value of fresh-cut apples,[6]; 50 µM,63.58
